Assay results taken from article PMC2898741 (Biochemistry, 2009).

How the values were obtained:
[1] = target: T1, riboflavin binding protein (RfBP) (Gallus gallus, UniProt P02752)
T1 sequence (P02752 18-238): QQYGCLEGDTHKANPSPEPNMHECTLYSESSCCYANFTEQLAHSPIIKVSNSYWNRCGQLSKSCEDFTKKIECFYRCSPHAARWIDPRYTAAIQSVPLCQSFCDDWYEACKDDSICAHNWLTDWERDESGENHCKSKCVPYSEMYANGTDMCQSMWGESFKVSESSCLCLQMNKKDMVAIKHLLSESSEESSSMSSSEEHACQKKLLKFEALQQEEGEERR

ribonuclease A (RNase) = target: T2, ribonuclease A (RNase) (Bos taurus, UniProt P61823); type: binding
T2 sequence (P61823 27-150): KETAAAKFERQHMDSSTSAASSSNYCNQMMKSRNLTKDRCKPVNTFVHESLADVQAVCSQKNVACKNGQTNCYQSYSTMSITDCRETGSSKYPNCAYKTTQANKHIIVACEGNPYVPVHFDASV

[2] = target: T1, riboflavin binding protein (RfBP); remark: listed apart in the source

Structure (SMILES) | absorbance and fluorescence titration; stopped-flow; DTNB protection [1] | absorbance and fluorescence titration; DTNB protection (ribonuclease A (RNase)) | absorbance (252 nm) and fluorescence titration; DTNB protection [2]
C[As](O)O [MMA] | PSAO and MMA bind almost quantitatively to reduced unfolded RfBP |  | 
O[As](O)O [arsenite] |  | Figure 7A demonstrates the binding of arsenite to reduced bovine pancreatic RNase using absorbance and fluorescence quenching | PSAO and arsenite also bind to reduced RfBP with a strong fluorescence quenching
